Laboratory results published in patent publication US20140061616A1, “ORGANIC SEMICONDUCTOR MATERIAL, COATING LIQUID CONTAINING THE MATERIAL, AND ORGANIC THIN FILM TRANSISTOR” (IDEMITSU KOSAN CO., LTD., priority 2010, published 2014).

Columns and labels:
[1] = Storage stability of organic semiconductor material: carrier mobility after storage in air; type: physicochemical; conditions: deposited transistor stored for 9 days in air
Experimental: An organic thin film transistor was obtained in the same manner as in Example 17, except that pentacene (see the following formula) was used as the material for forming the organic semiconductor layer instead of the compound (A-3).
The field-effect mobility μ of holes in the organic thin film transistor was calculated in the same manner as in Example 17, and found to be […]. The carrier mobility calculated after storing the organic thin film transistor for 9 days in air was […].

[2] = Evaluation of solubility: temperature of toluene required to dissolve the compound at 0.4 mass %; type: physicochemical; conditions: concentration of 0.4 mass %

SMILES | carrier mobility after storage [1] | Dissolution temperature (° C.) in toluene [2] | Dissolution temperature (° C.) in toluene ([2]; listed as comparative compound (2)) | deterioration in carrier mobility on storage [1]
c1ccc2cc3cc4cc5ccccc5cc4cc3cc2c1 [pentacene] | 1.3×10^3 cm^2/Vs | – | – | –
c1ccc2c(c1)sc1c2ccc2c1ccc1c3ccccc3sc12 [Comparative compound (2)] | – | Insoluble | not sufficiently dissolved | –
CCCCCCCCCCCCc1ccc2c(c1)sc1c2ccc2c1ccc1c3ccc(CCCCCCCCCCCC)cc3sc12 [Comparative compound (1)] | – | 90 °C | – | –
CCCCCc1ccc2c(c1)sc1c2ccc2c1ccc1c3ccc(CCCCC)cc3sc12 [Compound A-3] | 1.1 cm^2/Vs | 80 °C | – | a deterioration in carrier mobility was not observed
